Tests used:
ABL1 = ABL1 (Homo sapiens, UniProt P00519); assay: Kinase screening; assay type: biochemical
Method: (§1) Compound 1 was tested for its efficacy in inhibiting activities of 40 kinases and binding with 12 GPCRs both as an antagonist and an agonist.

AKT1 (PKB alpha) = AKT1 (PKB alpha) (Homo sapiens, UniProt P31749); assay: Kinase screening; assay type: biochemical
Method: as §1

AKT2 (PKB beta) = AKT2 (PKB beta) (Homo sapiens, UniProt P31751); assay: Kinase screening; assay type: biochemical
Method: as §1

CDC42 BPA (MRCKA) = CDC42 BPA (MRCKA) (Homo sapiens, UniProt Q5VT25); assay: Kinase screening; assay type: biochemical
Method: as §1

CDC42 BPB (MRCKB) = CDC42 BPB (MRCKB) (Homo sapiens, UniProt Q9Y5S2); assay: Kinase screening; assay type: biochemical
Method: as §1

CDK1/cyclin B = CDK1/cyclin B (Homo sapiens, UniProt P06493); assay: Kinase screening; assay type: biochemical
Method: as §1

CDK5/p25 = CDK5/p25 (Homo sapiens, UniProt Q00535); assay: Kinase screening; assay type: biochemical
Method: as §1

EGFR (ErbB1) = EGFR (ErbB1) (Homo sapiens, UniProt P00533); assay: Kinase screening; assay type: biochemical
Method: as §1

EPHB1 = EPHB1 (Homo sapiens, UniProt P54762); assay: Kinase screening; assay type: biochemical
Method: as §1

FLT3 = FLT3 (Homo sapiens, UniProt P36888); assay: Kinase screening; assay type: biochemical
Sequence of FLT3 (P36888 27-993, species assumed): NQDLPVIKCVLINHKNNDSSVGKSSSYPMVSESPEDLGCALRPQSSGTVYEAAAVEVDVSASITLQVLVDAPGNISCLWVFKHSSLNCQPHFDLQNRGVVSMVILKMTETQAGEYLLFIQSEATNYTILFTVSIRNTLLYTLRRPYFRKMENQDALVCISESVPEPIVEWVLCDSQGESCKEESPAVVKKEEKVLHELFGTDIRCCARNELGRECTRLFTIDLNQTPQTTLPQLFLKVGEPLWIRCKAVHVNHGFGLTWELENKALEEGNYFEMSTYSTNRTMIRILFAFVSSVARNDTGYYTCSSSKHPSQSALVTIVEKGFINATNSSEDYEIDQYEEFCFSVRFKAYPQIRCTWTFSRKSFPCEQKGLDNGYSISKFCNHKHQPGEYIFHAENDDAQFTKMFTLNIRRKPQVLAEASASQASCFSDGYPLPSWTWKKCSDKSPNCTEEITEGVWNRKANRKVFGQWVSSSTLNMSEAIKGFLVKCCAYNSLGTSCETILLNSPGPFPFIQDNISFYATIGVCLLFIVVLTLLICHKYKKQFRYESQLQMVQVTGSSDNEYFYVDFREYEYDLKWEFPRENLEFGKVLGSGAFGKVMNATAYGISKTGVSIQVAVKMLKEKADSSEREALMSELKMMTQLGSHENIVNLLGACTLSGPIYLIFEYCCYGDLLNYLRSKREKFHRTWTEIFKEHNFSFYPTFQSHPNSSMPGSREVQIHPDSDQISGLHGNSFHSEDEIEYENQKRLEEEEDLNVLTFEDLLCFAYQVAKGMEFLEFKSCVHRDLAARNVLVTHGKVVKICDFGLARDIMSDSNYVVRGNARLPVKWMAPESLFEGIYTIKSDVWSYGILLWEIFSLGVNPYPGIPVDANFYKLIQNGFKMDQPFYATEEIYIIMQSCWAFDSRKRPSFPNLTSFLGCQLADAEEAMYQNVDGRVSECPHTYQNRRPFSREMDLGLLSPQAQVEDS
Method: as §1

FRAP1 (mTOR) = FRAP1 (mTOR) (Homo sapiens, UniProt P42345); assay: Kinase screening; assay type: biochemical
Method: as §1

IGF1R = IGF1R (Homo sapiens, UniProt P08069); assay: Kinase screening; assay type: biochemical
Method: as §1

JAK1 = JAK1 (Homo sapiens, UniProt P23458); assay: Kinase screening; assay type: biochemical
Method: as §1

JAK2 = JAK2 (Homo sapiens, UniProt O60674); assay: Kinase screening; assay type: biochemical
Method: as §1

JAK3 = JAK3 (Homo sapiens, UniProt P52333); assay: Kinase screening; assay type: biochemical
Method: as §1

KIT = KIT (Homo sapiens, UniProt P10721); assay: Kinase screening; assay type: biochemical
Sequence of KIT (P10721 26-976, species assumed): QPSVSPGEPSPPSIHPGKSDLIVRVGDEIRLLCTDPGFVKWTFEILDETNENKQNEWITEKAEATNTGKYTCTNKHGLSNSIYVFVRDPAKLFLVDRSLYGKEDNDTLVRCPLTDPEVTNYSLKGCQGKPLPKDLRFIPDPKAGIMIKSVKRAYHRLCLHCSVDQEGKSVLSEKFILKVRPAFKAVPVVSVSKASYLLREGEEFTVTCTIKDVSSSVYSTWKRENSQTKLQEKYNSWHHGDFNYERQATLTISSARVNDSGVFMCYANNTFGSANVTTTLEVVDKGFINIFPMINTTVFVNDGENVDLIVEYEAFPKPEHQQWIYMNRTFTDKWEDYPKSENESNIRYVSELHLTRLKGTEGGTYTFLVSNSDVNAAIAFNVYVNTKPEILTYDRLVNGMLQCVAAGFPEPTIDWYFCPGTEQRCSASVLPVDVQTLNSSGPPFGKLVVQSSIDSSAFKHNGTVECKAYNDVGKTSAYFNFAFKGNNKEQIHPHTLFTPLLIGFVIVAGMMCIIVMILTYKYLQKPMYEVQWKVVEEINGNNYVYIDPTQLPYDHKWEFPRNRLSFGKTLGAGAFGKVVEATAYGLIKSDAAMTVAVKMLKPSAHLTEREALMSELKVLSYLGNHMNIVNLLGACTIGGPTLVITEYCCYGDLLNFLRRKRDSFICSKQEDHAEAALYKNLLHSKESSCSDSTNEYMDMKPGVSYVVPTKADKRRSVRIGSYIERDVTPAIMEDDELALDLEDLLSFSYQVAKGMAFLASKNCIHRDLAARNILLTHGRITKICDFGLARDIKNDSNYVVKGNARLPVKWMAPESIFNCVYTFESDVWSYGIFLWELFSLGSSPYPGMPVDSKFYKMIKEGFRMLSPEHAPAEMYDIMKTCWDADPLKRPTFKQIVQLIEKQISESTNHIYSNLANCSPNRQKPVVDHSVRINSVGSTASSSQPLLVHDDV
Method: as §1

LIMK1 = LIMK1 (Homo sapiens, UniProt P53667); assay: Kinase screening; assay type: biochemical
Sequence of LIMK1 (P53667 whole entry, species assumed): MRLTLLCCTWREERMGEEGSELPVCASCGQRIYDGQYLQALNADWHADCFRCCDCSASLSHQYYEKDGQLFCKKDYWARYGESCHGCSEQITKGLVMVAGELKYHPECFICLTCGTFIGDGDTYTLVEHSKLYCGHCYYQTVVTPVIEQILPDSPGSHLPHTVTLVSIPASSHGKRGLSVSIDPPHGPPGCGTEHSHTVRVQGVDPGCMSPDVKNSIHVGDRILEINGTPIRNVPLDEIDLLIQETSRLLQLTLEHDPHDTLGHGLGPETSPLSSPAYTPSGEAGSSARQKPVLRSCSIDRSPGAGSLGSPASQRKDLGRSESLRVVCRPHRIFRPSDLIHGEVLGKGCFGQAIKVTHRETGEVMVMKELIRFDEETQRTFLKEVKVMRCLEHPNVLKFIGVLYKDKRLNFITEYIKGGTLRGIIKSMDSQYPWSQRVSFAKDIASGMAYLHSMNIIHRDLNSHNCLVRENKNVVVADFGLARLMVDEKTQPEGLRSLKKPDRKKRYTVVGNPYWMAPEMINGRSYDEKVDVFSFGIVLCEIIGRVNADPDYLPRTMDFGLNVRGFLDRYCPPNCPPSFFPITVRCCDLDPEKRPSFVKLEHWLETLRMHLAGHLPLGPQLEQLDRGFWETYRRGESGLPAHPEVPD
Method: as §1

LIMK2 = LIMK2 (Homo sapiens, UniProt P53671); assay: Kinase screening; assay type: biochemical
Method: as §1

MAP2K2 (MEK2) = MAP2K2 (MEK2) (Homo sapiens, UniProt P36507); assay: Kinase screening; assay type: biochemical
Sequence of MAP2K2 (MEK2) (P36507 whole entry, species assumed): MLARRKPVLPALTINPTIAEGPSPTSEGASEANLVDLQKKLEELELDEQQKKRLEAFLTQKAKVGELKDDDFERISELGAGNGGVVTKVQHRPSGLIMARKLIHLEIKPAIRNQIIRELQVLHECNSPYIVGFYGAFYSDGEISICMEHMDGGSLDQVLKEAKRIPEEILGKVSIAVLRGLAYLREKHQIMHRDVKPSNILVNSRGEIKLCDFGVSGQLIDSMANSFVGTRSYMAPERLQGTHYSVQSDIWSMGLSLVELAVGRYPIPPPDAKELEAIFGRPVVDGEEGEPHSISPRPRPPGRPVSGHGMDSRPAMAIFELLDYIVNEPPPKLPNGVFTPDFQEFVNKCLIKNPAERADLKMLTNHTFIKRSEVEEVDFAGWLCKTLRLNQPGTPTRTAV
Method: as §1

MAP3K2 (MEKK2) = MAP3K2 (MEKK2) (Homo sapiens, UniProt Q9Y2U5); assay: Kinase screening; assay type: biochemical
Sequence of MAP3K2 (MEKK2) (Q9Y2U5 whole entry, species assumed): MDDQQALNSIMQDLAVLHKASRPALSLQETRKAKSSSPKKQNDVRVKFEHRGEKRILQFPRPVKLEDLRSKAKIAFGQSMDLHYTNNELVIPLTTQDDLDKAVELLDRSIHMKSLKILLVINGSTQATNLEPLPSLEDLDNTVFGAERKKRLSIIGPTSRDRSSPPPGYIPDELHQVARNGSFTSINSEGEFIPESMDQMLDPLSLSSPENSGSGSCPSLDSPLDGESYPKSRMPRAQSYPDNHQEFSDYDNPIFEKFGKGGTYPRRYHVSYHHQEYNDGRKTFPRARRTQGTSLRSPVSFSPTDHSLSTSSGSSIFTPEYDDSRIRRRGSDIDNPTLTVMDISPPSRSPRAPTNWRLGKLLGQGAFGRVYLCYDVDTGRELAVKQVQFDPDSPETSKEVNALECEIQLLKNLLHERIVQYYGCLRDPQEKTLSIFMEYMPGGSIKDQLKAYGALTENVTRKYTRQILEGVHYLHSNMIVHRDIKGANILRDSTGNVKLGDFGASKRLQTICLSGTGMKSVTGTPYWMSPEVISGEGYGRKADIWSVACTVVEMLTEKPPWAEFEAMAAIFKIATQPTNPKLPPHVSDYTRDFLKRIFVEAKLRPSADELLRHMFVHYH
Method: as §1

MAPK3 (ERK1) = MAPK3 (ERK1) (Homo sapiens, UniProt P27361); assay: Kinase screening; assay type: biochemical
Sequence of MAPK3 (ERK1) (P27361 whole entry, species assumed): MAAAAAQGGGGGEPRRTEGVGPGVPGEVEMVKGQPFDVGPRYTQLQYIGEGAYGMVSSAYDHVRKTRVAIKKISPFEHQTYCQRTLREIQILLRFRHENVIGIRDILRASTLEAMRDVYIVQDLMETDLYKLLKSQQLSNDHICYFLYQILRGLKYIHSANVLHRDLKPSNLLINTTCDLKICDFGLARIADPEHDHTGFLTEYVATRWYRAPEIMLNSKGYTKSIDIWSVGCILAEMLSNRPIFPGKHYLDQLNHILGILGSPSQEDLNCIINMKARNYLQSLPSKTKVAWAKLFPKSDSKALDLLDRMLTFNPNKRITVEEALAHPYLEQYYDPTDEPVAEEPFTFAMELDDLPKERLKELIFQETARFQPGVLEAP
Method: as §1

MAPK8 (JNK1) = MAPK8 (JNK1) (Homo sapiens, UniProt P45983); assay: Kinase screening; assay type: biochemical
Method: as §1

MAPK9 (JNK2) = MAPK9 (JNK2) (Homo sapiens, UniProt P45984); assay: Kinase screening; assay type: biochemical
Method: as §1

MYLK (MLCK) = MYLK (MLCK) (Homo sapiens, UniProt Q15746); assay: Kinase screening; assay type: biochemical
Method: as §1

PAK1 = PAK1 (Homo sapiens, UniProt Q13153); assay: Kinase screening; assay type: biochemical
Method: as §1

PAK2 (PAK65) = PAK2 (PAK65) (Homo sapiens, UniProt Q13177); assay: Kinase screening; assay type: biochemical
Sequence of PAK2 (PAK65) (Q13177 whole entry, species assumed): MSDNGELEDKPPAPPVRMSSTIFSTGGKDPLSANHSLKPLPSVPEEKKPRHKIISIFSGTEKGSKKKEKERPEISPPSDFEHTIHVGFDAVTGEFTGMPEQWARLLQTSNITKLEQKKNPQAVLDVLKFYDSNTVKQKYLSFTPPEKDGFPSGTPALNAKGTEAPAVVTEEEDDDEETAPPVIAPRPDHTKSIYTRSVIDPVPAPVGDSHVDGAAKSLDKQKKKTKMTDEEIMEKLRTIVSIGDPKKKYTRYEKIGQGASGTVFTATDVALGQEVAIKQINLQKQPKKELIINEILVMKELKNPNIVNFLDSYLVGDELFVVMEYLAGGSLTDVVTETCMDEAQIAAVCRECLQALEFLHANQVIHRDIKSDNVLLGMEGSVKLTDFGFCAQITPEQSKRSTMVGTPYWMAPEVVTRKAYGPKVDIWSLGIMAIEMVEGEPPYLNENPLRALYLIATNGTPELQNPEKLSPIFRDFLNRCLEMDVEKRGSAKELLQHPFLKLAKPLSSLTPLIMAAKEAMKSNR
Method: as §1

PAK3 = PAK3 (Homo sapiens, UniProt O75914); assay: Kinase screening; assay type: biochemical
Sequence of PAK3 (O75914 whole entry, species assumed): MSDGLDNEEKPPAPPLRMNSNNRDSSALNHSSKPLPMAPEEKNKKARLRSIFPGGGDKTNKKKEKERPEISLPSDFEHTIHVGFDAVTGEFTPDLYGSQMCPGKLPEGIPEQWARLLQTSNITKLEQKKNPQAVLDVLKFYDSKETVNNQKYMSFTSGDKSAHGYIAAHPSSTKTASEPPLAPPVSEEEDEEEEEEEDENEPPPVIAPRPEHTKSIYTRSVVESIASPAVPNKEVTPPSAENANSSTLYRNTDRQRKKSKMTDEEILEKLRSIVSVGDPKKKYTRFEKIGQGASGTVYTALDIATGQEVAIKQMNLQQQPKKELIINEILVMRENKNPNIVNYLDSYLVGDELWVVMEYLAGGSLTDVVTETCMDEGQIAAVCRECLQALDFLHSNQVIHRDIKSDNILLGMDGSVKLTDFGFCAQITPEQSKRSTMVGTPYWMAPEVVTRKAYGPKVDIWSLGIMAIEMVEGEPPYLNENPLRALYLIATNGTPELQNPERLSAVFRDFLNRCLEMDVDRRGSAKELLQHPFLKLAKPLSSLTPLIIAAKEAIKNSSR
Method: as §1

PAK4 = PAK4 (Homo sapiens, UniProt O96013); assay: Kinase screening; assay type: biochemical
Method: as §1

PAK6 = PAK6 (Homo sapiens, UniProt Q9NQU5); assay: Kinase screening; assay type: biochemical
Method: as §1

PAK7 (KIAA1264) = PAK7 (KIAA1264) (Homo sapiens, UniProt Q9P286); assay: Kinase screening; assay type: biochemical
Method: as §1

PDGFRA (PDGFR alpha) = PDGFRA (PDGFR alpha) (Homo sapiens, UniProt P16234); assay: Kinase screening; assay type: biochemical
Method: as §1

PIK3C2A (PI3K-C2 alpha) = PIK3C2A (PI3K-C2 alpha) (Homo sapiens, UniProt O00443); assay: Kinase screening; assay type: biochemical
Method: as §1

PIK3C2B (PI3K-C2 beta) = PIK3C2B (PI3K-C2 beta) (Homo sapiens, UniProt O00750); assay: Kinase screening; assay type: biochemical
Method: as §1

PIK3C3 (hVPS34) = PIK3C3 (hVPS34) (Homo sapiens, UniProt Q8NEB9); assay: Kinase screening; assay type: biochemical
Method: as §1

[1] = target: PIK3CA/PIK3R1 (p110 alpha/p85 alpha) (Homo sapiens, UniProt P42336); assay: Kinase screening; assay type: biochemical
Method: as §1

[2] = target: PIK3CD/PIK3R1 (p110 delta/p85 alpha) (Homo sapiens, UniProt O00329); assay: Kinase screening; assay type: biochemical
Method: as §1

ROCK1 = ROCK1 (Homo sapiens, UniProt Q13464); assay: Kinase screening; assay type: biochemical
Method: as §1

ROCK2 = ROCK2 (Homo sapiens, UniProt O75116); assay: Kinase screening; assay type: biochemical
Method: as §1

SRC = SRC (Homo sapiens, UniProt P12931); assay: Kinase screening; assay type: biochemical
Method: as §1

SYK = SYK (Homo sapiens, UniProt P43405); assay: Kinase screening; assay type: biochemical
Method: as §1

SEM cells = assay: Proliferation assay in SEM leukemia cells; assay type: cell-based; conditions: compared to Compound 1 (FIG. 12a)
Method: Dose Dependent Inhibition of Proliferation The 100 compounds selected from the initial in silico screen were assayed for inhibition of proliferation in two leukemia cell lines, SEM and P12 by Cell Titer Glo. The cells for the proliferation assay were spun down and re-suspended. The cell suspension was then divided and the compound to be tested added in desired concentrations and subsequently plated. Following an incubation period, the Cell Titer Glo reagent (Promega CellTiter 96® Aqueous Non-Radioactive Cell Proliferation Assay) was added and allowed to incubate. The absorbance is subsequently measured at 490 nm using a plate reader. Each compound was analyzed for its effects on cell proliferation.
The lead compound, i.e. Compound 1, was analyzed for its effect on cell proliferation at various doses on three different leukemia cell lines: SEM, P12, and Loucy. In order to quantitate the percentage inhibition of cell proliferation, Cell Titer Glo analysis was completed as described in Example 2 above.
FIGS. 3a-3c show three graphs illustrating the dose dependent inhibition of proliferation of Compound 1 in SEM, P12, and Loucy cells as measured by MTS assay. […] Compound 1 was further analyzed for its effect on cell apoptosis and cell death using a flow based assay using Annexin V staining. […]

SEM cell line = assay: Annexin V flow assay for apoptosis and cell death, SEM; assay type: cell-based; conditions: Annexin V staining
Description: FIGS. 3a-3c show three graphs illustrating the dose dependent inhibition of proliferation of Compound 1 in SEM, P12, and Loucy cells as measured by MTS assay. […] Compound 1 was further analyzed for its effect on cell apoptosis and cell death using a flow based assay using Annexin V staining.
Compound 2 was further analyzed for its effect on cell apoptosis and cell death using a flow based assay using Annexin V staining.

Rac1 = Rac1 (Homo sapiens, UniProt P63000); assay: 2D NMR spectroscopy binding assay; conditions: 50 μM Rac1 and 250 μM Compound 2
Method: (§2) Compound 1 was tested for its efficacy in binding with Rac1 in two independent binding assays, i.e., 2D NMR spectroscopy and Homologous time resolved fluorescence assay (HTRF).
(§3) In the 2D NMR assay, samples containing 50 μM Rac1 and 250 μM or 400 μM Compound 1 were used.
(§4) Compound 2 was tested for its efficacy in binding with Rac1 in two independent binding assays, i.e., 2D NMR spectroscopy and Homologous time resolved fluorescence assay (HTRF).
(§5) In the 2D NMR assay, a sample containing 50 μM Rac1 and 250 μM Compound 2 was used.

Tiam1-Rac complex = Tiam1-Rac complex (Homo sapiens, UniProt P63000); assay: Homologous time resolved fluorescence (HTRF) binding assay
Method: as §2, §3, §4, §5

cancer cell = assay: Cellular proliferation assay of SAR analogs; assay type: cell-based; conditions: among 48 tested SAR analogs
Method: SAR was performed to identify analogs of Compound that have improved properties. 56 Compounds identified in this SAR study were synthesized. Among them, 48 compounds were tested a cellular proliferation assay.

P12-ICHIKAWA cells = assay: In vivo P12-ICHIKAWA leukemia model in NSG mice; conditions: 50 mg/Kg body weight oral twice daily; supine position, vs vehicle
Method: Specifically, cell line P12-ICHIKAWA was marked with a lentiviral vector coexpressing Luciferase and an mCherry fluorescent tag. Sorted mCherry positive P12-ICHIKAWA cells were injected into immunodeficient (NSG) mice. About 3 weeks after injection, based on an estimation of the tumor burden by quantitative assessment of bioluminescence imaging (BLI) in vivo, mice began treatment. Mice received twice daily oral doses of Compound 2 (50 mg/Kg body weight) or placebo. Each of the Compound 2 group and the vehicle group had eight mice. BLI analysis was performed three times a week to assess tumor burden. Toxicity was assessed by evaluating body weight in treated mice vs vehicle group (see FIG. 13a). The experiment was halted at day 18 after beginning of treatment due to the very aggressive nature of the disease in the vehicle group. Mice were imaged in the supine and prone position. FIG. 13b summarizes BLI values normalized to treatment start in both the compound 2 group and the vehicle group in the supine position.

CCN(CC)CCCC(C)Nc1nc(C)cc(Nc2ccc3nc(C)cc(N)c3c2)n1.Cl.Cl.Cl (racemic) [NSC23766, N6-[2-[[4-(diethylamino)-1-methylbutyl]amino]-6-methyl-4-pyrimidinyl]-2-methyl-4,6-quinolinediamine trihydrochloride, reference compound]
inhibition percentage (ABL1): 19.3 percentage
inhibition percentage (AKT1 (PKB alpha)): −23.3 percentage
inhibition percentage (AKT2 (PKB beta)): −22.9 percentage
inhibition percentage (CDC42 BPA (MRCKA)): −1.8 percentage
inhibition percentage (CDC42 BPB (MRCKB)): −4.6 percentage
inhibition percentage (CDK1/cyclin B): 1.3 percentage
inhibition percentage (CDK5/p25): 11.4 percentage
inhibition percentage (EGFR (ErbB1)): 24.6 percentage
inhibition percentage (EPHB1): 19.8 percentage
inhibition percentage (FLT3): 31.4 percentage
inhibition percentage (FRAP1 (mTOR)): 27.0 percentage
inhibition percentage (IGF1R): 42.9 percentage
inhibition percentage (JAK1): 50.6 percentage
inhibition percentage (JAK2): 37.7 percentage
inhibition percentage (JAK3): 21.9 percentage
inhibition percentage (KIT): 26.3 percentage
inhibition percentage (LIMK1): −14.2 percentage
inhibition percentage (LIMK2): −3.5 percentage
inhibition percentage (MAP2K2 (MEK2)): 20.7 percentage
inhibition percentage (MAP3K2 (MEKK2)): 14.3 percentage
inhibition percentage (MAPK3 (ERK1)): 11.5 percentage
inhibition percentage (MAPK8 (JNK1)): −1.1 percentage
inhibition percentage (MAPK9 (JNK2)): −8.9 percentage
inhibition percentage (MYLK (MLCK)): 1.6 percentage
inhibition percentage (PAK1): 24.4 percentage
inhibition percentage (PAK2 (PAK65)): 0.3 percentage
inhibition percentage (PAK3): 6.3 percentage
inhibition percentage (PAK4): −0.2 percentage
inhibition percentage (PAK6): 8.9 percentage
inhibition percentage (PAK7 (KIAA1264)): 4.9 percentage
inhibition percentage (PDGFRA (PDGFR alpha)): 34.8 percentage
inhibition percentage (PIK3C2A (PI3K-C2 alpha)): −3.3 percentage
inhibition percentage (PIK3C2B (PI3K-C2 beta)): −1.8 percentage
inhibition percentage (PIK3C3 (hVPS34)): −17.8 percentage
inhibition percentage [1]: −0.4 percentage
inhibition percentage [2]: −5.8 percentage
inhibition percentage (ROCK1): −2.0 percentage
inhibition percentage (ROCK2): −14.7 percentage
inhibition percentage (SRC): 43.6 percentage
inhibition percentage (SYK): 39.4 percentage

CCc1ccc(CN(C)C(=O)CCc2nnc(CCc3c[nH]c4ccccc34)o2)cc1 [Compound 2]
efficacy in inhibiting proliferation of SEM cells (SEM cells): improved efficacy
cell apoptosis and cell death (SEM cell line): caused cells apoptosis and cell death
binding to Rac1 by 2D NMR (Rac1): did not indicate any significant binding
binding in the HTRF assay (Tiam1-Rac complex): no binding
inhibition of cancer cell proliferation (cancer cell): strongest inhibition
bioluminescence in the mice (P12-ICHIKAWA cells): significantly reduced
